Results on 7 molecules are retold here after ChEMBL document CHEMBL1134113, “Selective inhibition of Src SH2 by a novel thiol-targeting tricarbonyl-modified inhibitor and mechanistic analysis by (1)H/(13)C NMR spectroscopy” (Bioorg Med Chem Lett, 2001).

Assay [1] addresses T1, Proto-oncogene tyrosine-protein kinase Src (Homo sapiens, UniProt P12931). In words: Selectivity for Src SH2 domain compared to Cys188Ala Src SH2 domain mutants.
Assay [2] has as its target T1, Proto-oncogene tyrosine-protein kinase Src. In words: Binding affinity for wild type Src SH2 domain using BIAcore binding assay.
In assay [3] the target is Proto-oncogene tyrosine-protein kinase Src (Homo sapiens, UniProt P12931, C188A). As to the kind of experiment: (§1) Binding affinity for Cys188Ala Src SH2 domain mutant using BIAcore binding assay.
Assay [4] has as its system Proto-oncogene tyrosine-protein kinase Src (Homo sapiens), P12931 [C188A]. Described as §1. As to conditions: concentration not given here.

What is called IC50 is the midpoint of a concentration-inhibition curve. A high value points to lower potency. For orientation: inhibition means the drop in the measured response relative to a control, in per cent. Low values mean a response near the control, high ones a response far below the control.

Activity calls are given as the source filed them. The rule behind the calls is not given here.

Consider `COC(=O)C(=O)C(=O)c1ccc(CC(NC(C)=O)C(=O)N[C@@H](CCC(=O)O)C(=O)N[C@H](C(=O)N[C@@H](CC(C)C)C(N)=O)[C@@H](C)O)cc1` (stereo not given in full), for which the Selectivity result in assay [1] was “Active”. In addition, the IC50 in assay [2] is 8.6 µM; in assay [3] it was more than 1000 µM.

In the case of `COC(=O)C(O)(O)C(=O)c1ccccc1`, the Selectivity entry in assay [1] is “Active”. Further, the IC50 is 100 µM in assay [2] and more than 1000 µM in assay [3].

Regarding `CC[C@H](C)[C@H](NC(=O)[C@H](CCC(=O)O)NC(=O)[C@H](CCC(=O)O)NC(=O)CCc1cccc(C(=O)O)c1)C(N)=O`, the Selectivity result in assay [1] was “inactive”. Moreover, the IC50 in assay [2] worked out at 250 µM. In assay [4], this molecule registered an inhibition of 15%.

As to `CC[C@H](C)[C@H](NC(=O)[C@H](CCC(=O)O)NC(=O)[C@H](CCC(=O)O)NC(=O)[C@@H](N)Cc1ccc(OP(=O)(O)O)cc1)C(=O)O`, the IC50 in assay [2] is 1.2 µM; in assay [3], 1.33 µM.

As for `CC[C@H](C)[C@H](NC(=O)[C@H](CCC(=O)O)NC(=O)[C@H](CCC(=O)O)NC(=O)CCc1ccc(C(=O)C(O)(O)C(=O)OC)cc1)C(N)=O`, in assay [1], the Selectivity entry is “Active”. For the same molecule, the IC50 is 20 µM in assay [2] and more than 1000 µM in assay [3].

Turning to `CC[C@H](C)[C@H](NC(=O)[C@H](CCC(=O)O)NC(=O)[C@H](CCC(=O)O)NC(=O)C(Cc1ccc(C(=O)C(=O)C(=O)OC)cc1)NC(C)=O)C(N)=O` (stereo not given in full), in assay [1], the Selectivity result was “Active”. Also, the IC50 in assay [2] is 2.3 µM; in assay [3], more than 1000 µM.

Turning to `CC[C@H](C)[C@H](NC(=O)[C@H](CCC(=O)O)NC(=O)[C@H](CCC(=O)O)NC(=O)CCc1cccc(C(=O)C(O)(O)C(=O)OC)c1)C(N)=O`, in assay [1], the Selectivity entry is “Active”. For the same molecule, the results for the concentration for half-maximal inhibition (IC50) in assay [2] and in assay [3] were 18 µM and more than 1000 µM, respectively.
